Test results taken from PubChem BioAssay AID504322 (Emory University Molecular Libraries Screening Center, 2011).
Activity calls are given as the source filed them. No rule for the calls is given here.

system: CHOP reporter cell assay, percent of control; assay: CHOP reporter inhibitor potency, dose response, cell-based (AID 504322);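 also: CHO cells carrying a CHOP reporter stimulated with tunicamycin to induce ER stress; potency is for inhibition of the stress-induced reporter signal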

SMILES | IC50
C=CCn1c(SCC(=O)c2[nH]c(C)c(C(=O)OC)c2C)nc2scc(-c3ccc(OC)c(OC)c3)c2c1=O | 6.22 µM (inactive)
CS(=O)(=O)c1ccc(S(=O)CC(=O)OCc2ccccc2)c([N+](=O)[O-])c1 (stereo not drawn) | > 10 µM (inactive)
N=c1n(Cc2ccccc2)c2ccccc2n1CC(O)COc1ccc(Cl)cc1Cl (stereo not drawn) | 6.92 µM (inactive)
C/C=C(\C)C(=O)OC1C(C)=C2C(C1OC(=O)CCCCC)C(C)(OC(C)=O)CC(OC(=O)CCC)C1(O)C2OC(=O)C1(C)O (stereo not drawn) | < 0.16 µM
Cc1ccc(/C=N/NC(=O)CSCc2ccc(Cl)cc2)cc1 | 9.83 µM (inactive)
CCOC(=O)C(NC(=O)Nc1cccc(C)n1)(OCC(F)(F)F)C(F)(F)F (stereo not drawn) | > 10 µM (inactive)
Cc1ccc(CNCc2cc3c(C(C)(C)C)nn(-c4ccccc4)c3[nH]c2=O)cc1 | 7.24 µM (inactive)
Cc1cc(C)cc(OC2CCCCC2NS(=O)(=O)c2ccccc2)c1 (stereo not drawn) | > 10 µM (inactive)
O=C(NC(Nc1nc2ccc([N+](=O)[O-])cc2s1)(C(F)(F)F)C(F)(F)F)c1ccccc1Cl | 0.87 µM
COc1cc(C)nc(N2CCCC(C(=O)Nc3cccc(Cl)c3C)C2)n1 (stereo not drawn) | 6.3 µM (inactive)
CC(C)C[C@H](NC(=O)c1[nH]cnc1C(=O)N[C@@H](C)C(=O)OC(C)(C)C)C(=O)OC(C)(C)C | 3.69 µM (inactive)
COC(=O)CS(=O)(=O)c1nnc([C@H](Cc2ccccc2)NC(=O)OC(C)(C)C)o1 | 4.68 µM
CCCCCn1c(SCCC(C)C)nc2c1c(=O)[nH]c(=O)n2C | 6.85 µM (inactive)
CCC1CCc2c(sc(NC(=O)c3ccoc3C)c2C(N)=O)C1 (stereo not drawn) | > 10 µM (inactive)
CC(C)=CCc1c(O)c(CC=C(C)C)c2c(c1O)C(=O)CC(c1ccc(O)cc1)O2 (stereo not drawn) | 9.61 µM (inactive)
C[C@H]1C[C@@H](C)C(=O)[C@@H]([C@H](O)CC2CC(=O)NC(=O)C2)C1 | < 0.16 µM (inactive)
COc1ccc2c3c(cccc13)C(=O)N(O)C2=O | 2.57 µM
Cc1nc2c(=O)n(C)c(=O)n(C)c2nc1Cl | 3.79 µM (inactive)
COC(=O)c1ccc2c(c1)C(C)(C)C(/C=C/c1ccc(OC)c(OC)c1OC)=[N+]2C | 9.48 µM (inactive)
Cc1ccc(C(C(=O)NC2CCCCC2)N(C(=O)Cc2c[nH]c3ccccc23)c2ccccc2C)o1 (stereo not drawn) | > 10 µM (inactive)
CCOC(=O)C1=C(O)/C(=C/c2ccc(CNC(=O)C(=O)Nc3ccc(C)cc3)o2)N=C1C | > 10 µM (inactive)
CC1=NNC(=O)/C1=C\c1cn(-c2ccccc2)nc1-c1ccc(F)cc1 | 9.5 µM (inactive)
Cc1nc(Nc2ccc(F)cc2)[nH]c(=O)c1CCC(C)C | 2.43 µM

SMILES | IC50
COC(=O)[C@]12OC[C@]34C([C@@H](O)[C@@H]1O)[C@]1(C)CC(=O)C(O)=C(C)[C@@H]1C[C@H]3OC(=O)[C@H](O)[C@@H]24 (stereo partly drawn) | < 0.16 µM
CN=C1SC(CC(=O)Nc2ccc(F)cc2F)C(=O)N1/N=C/c1ccc(OC(F)F)c(OC)c1 (stereo not drawn) | 9.78 µM (inactive)
CCN(CCO)c1ncnc2c1sc1nc(CC(C)C)c3c(c12)CC(C)(C)OC3 | 9.11 µM (inactive)
CCCc1cc(C(=O)Cc2ccc(F)cc2)c(O)cc1O | 5.98 µM (inactive)
Oc1ccc(/C=N/Nc2nc(N3CCCCCC3)nc(N3CCCCCC3)n2)c(O)c1 | 9.82 µM (inactive)
COC(=O)C[C@]1(C(=O)OC)CN(C#N)N(c2ccc(Cl)cc2)C12c1ccccc1-c1ccccc12 | 2.16 µM
C=C(C)COc1ccc(-c2n[nH]c(C)c2-c2ccc(Br)cc2)c(O)c1 | 9.53 µM (inactive)
COc1cc(/C=C/C(=O)OC2CC3CCC2(C)C3(C)C)ccc1O (stereo not drawn) | 9.52 µM (inactive)
COc1ccc2c(C)nc(Nc3nc(C)c(C)c(=O)[nH]3)nc2c1 | 9.72 µM (inactive)
CCCCS(=O)(=O)/C=C\C=C/S(=O)(=O)CCCC | 2.12 µM
C=CCc1cc(C)ccc1OCC(O)CN1CCN(c2ccccc2)CC1 (stereo not drawn) | 3.94 µM (inactive)
COc1ccc(NC(=O)c2cc(-c3cc(C)cc(C)c3O)n[nH]2)cc1Cl | 8.79 µM (inactive)
CCCCc1nc(NCCN)c(C#N)c2c1CSC(C)(C)C2 | 5.15 µM (inactive)
O=C1C(Cl)=C(Nc2ccccc2)C(=O)c2ccccc21 | > 10 µM (inactive)
CCc1ccc(OCc2n[nH]c(=S)n2C(C)CCCC(C)C)cc1 (stereo not drawn) | 2.44 µM
CCc1ccc2c(c1)C(c1ccc([N+](=O)[O-])cc1)=NNC(c1ccc(C)cc1)=N2 | > 10 µM (inactive)
Cc1nn(Cc2c(Cl)cccc2Cl)c(C)c1NC(=O)c1cc(C(C)C)on1 | > 10 µM (inactive)
CCOC(=O)c1c(NC(=O)Cc2cccs2)sc(C(=O)NC2CCCCC2)c1C | 2.99 µM
CCCCN=c1scc(-c2ccc3c(c2)NC(=O)CO3)n1N=C1CCCC1 | 8 µM (inactive)
CC(=O)OC[C@]12CCC(C)=C[C@H]1O[C@@H]1[C@H](O)[C@@H](OC(C)=O)[C@@]2(C)[C@]12CO2 | < 0.16 µM (inactive)
Cc1ccc(-n2ncc(Br)c(Br)c2=O)cc1 | 4.78 µM
CC(C)=NOc1cc(NC(=O)CCl)cc([N+](=O)[O-])c1 | 9.61 µM (inactive)
CC(C)(C)c1ccc(OCCNC(=S)Nc2ccccc2)cc1 | > 10 µM (inactive)

SMILES | IC50
O=C(N/N=C/c1ccccn1)c1cc(-c2ccc3ccccc3c2)n[nH]1 | > 10 µM (inactive)
Oc1[nH]c2ccccc2c1N=NC(=S)NCCc1ccccc1 | 9.82 µM (inactive)
O=C1c2ccccc2C(=O)c2c1oc(C(F)(F)F)c2C(=O)c1ccccc1 | 9.61 µM (inactive)
O=C(OCn1ncc(Cl)c(Cl)c1=O)c1ccc(F)cc1 | 3.35 µM
CCN1C=CC(=C2C(=O)c3ccccc3C2=O)C=C1 | 1.11 µM (inactive)
CC1=CC(=O)C=C(C)C1=NOS(=O)(=O)c1ccccc1 | 5.48 µM (inactive)
Cc1cc(C2=NNC(=NC3CC3)SC2)c(C)n1-c1ccccc1 | < 0.16 µM (inactive)
O=C(/C=C/Sc1ncn[nH]1)c1ccc(Cl)cc1 | > 10 µM (inactive)
Nc1cc(Cl)c2nonc2c1[N+](=O)[O-] | 5.89 µM (inactive)
O=C1c2[nH]nc(-c3ccccc3O)c2C(c2cccc(Cl)c2)N1Cc1ccco1 (stereo not drawn) | 9.62 µM (inactive)
COc1oc(-c2ccc(Cl)cc2)nc1C(F)(F)F | 1.29 µM
O=C(Nc1cc(N2CCOCC2)ncn1)NC1(C(F)(F)F)Oc2ccc(Cl)cc2O1 (stereo not drawn) | > 10 µM (inactive)
CC1(c2ccccc2)CC(C)(C)N2C(=O)/C(=C3\SC(=S)NC3=O)c3cccc1c32 (stereo not drawn) | 6.98 µM (inactive)
CC(C)c1ccc(C2C3CSCC=C3C(C#N)=C(N)C2(C#N)C#N)cc1 (stereo not drawn) | 9.55 µM (inactive)
O=C(Nc1ccc([N+](=O)[O-])cc1)Nc1nc(-c2ccc(Cl)s2)cs1 | 2.28 µM
C=CCn1c(CCc2cc(C(C)(C)C)c(O)c(C(C)(C)C)c2)n[nH]c1=S | 7 µM (inactive)
O=C1C(C2=NC(c3ccccn3)C3C(=O)N(c4ccc(OC(F)(F)F)cc4)C(=O)C23)=C(O)c2ccccc21 (stereo not drawn) | 4.57 µM
O=C(Cc1ccccc1)NC(=S)Nc1cccc(C(F)(F)F)c1 | 3.61 µM (inactive)
CCC1(c2ccc(F)cc2)NC(=O)N(CC(=O)Nc2ccc(-c3nc4ccc(C)cc4s3)cc2)C1=O (stereo not drawn) | 1.54 µM
CCOc1cc(S(=O)(=O)Nc2cc(C)cc(C)c2)ccc1Cl | 9.51 µM (inactive)
Cc1cc(Cl)ccc1OCC(=O)N[C@@H](Cc1ccccc1)c1nc2ccccc2[nH]1 | 9.23 µM (inactive)
Cc1ccc(-c2nn(-c3ccccc3)cc2/C=N/NC(=O)c2ccc(Br)o2)cc1 | 5.04 µM
